Earlier results, collected in patent US20040048805A1, “Antilipemic agents” (priority 2003, published 2004).

Test system: HMG-CoA reductase
Conditions: oral administration to rabbits; Arterioscler Thromb Vasc Biol. 1998; 18: 1304

**Q.** With `CCC(CC)CC(=O)c1c(C(=O)OC)c(-c2ccc(OC)c(OC)c2)c2c(OC)c(OC)c(OC)cc2c1O` [compound A, methyl 1-(3,4-dimethoxyphenyl)-3-(3-ethylvaleryl)-4-hydroxy-6,7,8-trimethoxy-2-naphtoate] as the compound, how does the “HMG-CoA reductase activity in the liver” value read?
**A.** increased the HMG-CoA reductase activity in the liver
